{
  "source": "ChEMBL document CHEMBL1137128",
  "about": "“Quantitative structure-activity relationship analysis of a series of 2,3-diaryl benzopyran analogues as novel selective cyclooxygenase-2 inhibitors” (Bioorg Med Chem Lett, 2004)",
  "biological_target": "T1, Prostaglandin G/H synthase 2 (Mus musculus, UniProt Q05769)",
  "T1 sequence (Q05769 whole entry)": "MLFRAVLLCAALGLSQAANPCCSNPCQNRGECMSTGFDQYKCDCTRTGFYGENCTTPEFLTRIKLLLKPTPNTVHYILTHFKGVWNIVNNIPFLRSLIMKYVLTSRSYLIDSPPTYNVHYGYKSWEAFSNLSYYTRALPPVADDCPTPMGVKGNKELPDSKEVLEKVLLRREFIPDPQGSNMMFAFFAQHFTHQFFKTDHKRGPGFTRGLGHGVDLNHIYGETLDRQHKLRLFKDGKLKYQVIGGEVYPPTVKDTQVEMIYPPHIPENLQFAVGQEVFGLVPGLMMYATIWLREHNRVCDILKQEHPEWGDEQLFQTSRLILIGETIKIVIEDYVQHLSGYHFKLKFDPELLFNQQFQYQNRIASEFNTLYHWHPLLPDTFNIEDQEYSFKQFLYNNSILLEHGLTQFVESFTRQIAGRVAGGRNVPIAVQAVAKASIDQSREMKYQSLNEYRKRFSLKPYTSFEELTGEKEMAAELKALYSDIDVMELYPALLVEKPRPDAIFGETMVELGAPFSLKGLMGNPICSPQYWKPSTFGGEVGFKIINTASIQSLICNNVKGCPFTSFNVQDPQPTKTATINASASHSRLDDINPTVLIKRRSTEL",
  "assay": "In vitro inhibitory activity against Prostaglandin G/H synthase 2 from mouse peritoneal macrophages",
  "data": [
    {"smiles": "CS(=O)(=O)c1ccc(-c2oc3ccccc3c(=O)c2-c2cc3ccccc3s2)cc1", "values": [
      {"measurement": "IC50", "result": 331, "unit": "nM"}
    ]}
  ]
}
